{
  "source": "paper PMC12312386",
  "about": "“Multiple transactivation domains of EZH2 bind to the TAZ2 domain of p300 and stimulate the acetyltransferase function of p300” (Biochemical Journal, 2025)",
  "key": {"[1]": {"target": "T1, p300TAZ2 (TAZ2 domain of p300) (Homo sapiens, UniProt Q09472, A1723W)", "T1 construct": "Human p300TAZ2 [aa 1722–1812, pGEX-4T-1 vector with an additional tobacco etch virus (TEV) cleavage site]; GST (pGEX-4T-1, TEV site) (N, cleaved yes); made in house; host or cells: Escherichia coli Rosetta-2 (DE3) pLysS", "T1 sequence (Q09472 1722-1812 A1723W)": "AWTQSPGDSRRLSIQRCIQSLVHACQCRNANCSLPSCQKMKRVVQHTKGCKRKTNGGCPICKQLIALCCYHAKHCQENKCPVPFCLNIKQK", "assay": "Microscale thermophoresis (MST) binding of p300TAZ2-His to EZH2 TAD peptides", "conditions": "direct binding, p300TAZ2-6×His labeled RED-tris-NTA, 10 nM; 25 mM Tris pH 7.5, 150 mM NaCl, 2.5 mM DTT; 1:1 stoichiometry; average ± SD of three (EZH2TAD2, EZH2TAD3) or four (EZH2TAD1) independent measurements", "experimental": "After induction with isopropyl b-D-1-thiogalactopyranoside (IPTG), harvesting, and lysis in buffer [50 mM Tris pH 7.0, 1 M NaCl, 5 mM dithiothreitol (DTT), 1 mM phenylmethanesulfonylfluoride (PMSF) and DNase] by sonication, the proteins were purified on glutathione agarose beads (Pierce) and eluted with buffer containing reduced L-glutathione (Fisher). The GST tag was either cleaved with TEV protease overnight at 22°C or kept intact during subsequent purification steps. Both GST- and His-tagged proteins, as well as untagged p300TAZ2, were further purified by cation exchange (HiTrap SP HP, Cytiva) or heparin affinity chromatography (HiTrap Heparin HP, Cytiva).\nMST experiments were carried out on a Monolith NT.115 instrument (NanoTemper). All experiments were performed using SEC-purified p300TAZ2-6×His protein in 25 mM Tris pH 7.5 buffer, 150 mM NaCl, and 2.5 mM DTT. p300TAZ2-6×His was labeled using a His-Tag Labeling Kit RED-tris-NTA (2nd Generation, NanoTemper) and kept constant at 10 nM. Dissociation constants were determined using a direct binding assay in which peptide was varied in concentration by serial dilution of discrete samples. The measurements were performed at 50% LED and medium MST power with 3-s pre-laser time, 20-s laser on-time, and 1-s off-time."}, "[2]": {"system": "FLAG-HA-tagged p300 catalytic core (aa 1035–1830 of p300)", "assay": "Histone acetyltransferase (HAT) assay, Western blot, recombinant nucleosome substrate", "format": "biochemical", "conditions": "1 μg p300 core, 2.5, 5 or 10 μg GST-tagged TADs, 1 μg nucleosome, 100 mM acetyl-CoA, 50 mM Tris-HCl pH 8.0, 30°C, 15 min", "method": "Histone acetyltransferase assay\nFor HAT assays, FLAG-HA-tagged p300 core (aa 1035–1830 of p300) in a pCDH vector was expressed in 293 T cells for two days. Cells were lysed in lysis buffer (50 mM Tris-HCl pH 7.5, 300 mM NaCl, 1.5 mM MgCl2, 1 mM EDTA, 1% Triton100, 10% glycerol, 1 mM PMSF, and protease inhibitors) and sonicated. Cell lysates were incubated with anti-Flag M2 beads (Sigma) at 4° for 4 h. The beads were then washed three times with buffer (50 mM Tris-HCl pH 7.5, 500 mM NaCl, 1.5 mM MgCl2, 0.2 mM EDTA, 0.1% NP40, 10% glycerol, and 1 mM PMSF), and the protein was eluted with elution buffer (50 mM Tris-HCl pH 7.5, 300 mM NaCl, 1 mM DTT, 10% glycerol, and 0.4 mg/ml Flag peptide). […]\nPurified FLAG-HA-tagged p300 catalytic core fragment (1 μg) was incubated with increasing amounts of GST-tagged EZH2TADs and GST-tagged EZH1TADs (2.5, 5, or 10 μg) and the nucleosome (1 μg) in HAT reaction buffer (50 mM Tris-HCl pH 8.0, 100 mM NaCl, 10% glycerol, 1 mM DTT, […], and 1× cOmplete EDTA-free Protease Inhibitor Cocktail) at 30°C for 15 min. Reactions were stopped by boiling at 95°C for 5 min in 2×SDS loading buffer, and samples were analyzed by SDS-PAGE and Western blot. […]"}, "GST-p300TAZ2": {"system": "GST-p300TAZ2", "assay": "Mass photometry (MP) of GST-p300TAZ2 with EZH2TAD constructs", "format": "binding, human", "method": "[37]. […] After induction with isopropyl b-D-1-thiogalactopyranoside (IPTG), harvesting, and lysis in buffer [50 mM Tris pH 7.0, 1 M NaCl, 5 mM dithiothreitol (DTT), 1 mM phenylmethanesulfonylfluoride (PMSF) and DNase] by sonication, the proteins were purified on glutathione agarose beads (Pierce) and eluted with buffer containing reduced L-glutathione (Fisher). The GST tag was either cleaved with TEV protease overnight at 22°C or kept intact during subsequent purification steps. […] The EZH2TAD1 ([…]) construct was generated by deletion using Q5 Hot Start High-Fidelity kit (NEB) and confirmed by DNA sequencing. Both constructs were expressed in E. coli Rosetta-2 (DE3) pLysS cells grown in LB media and induced at an OD600 of 0.6-0.8 with 1 mM IPTG for 16 h at 16°C. Cells were harvested by centrifugation, suspended in buffer (50 mM Tris pH 7.5, 500 mM NaCl, 1% CHAPS, 2 mM DTT, 1 mM PMSF, Roche cOmplete Protease Inhibitor Cocktail, and DNase), and lysed by sonication. […] When necessary, EZH2TAD constructs were further purified using a Superdex 200 Increase 10/300 GL column (Cytiva) with monitoring at 205 and 280 nm. […] To overcome the minimum size limit, a GST-fusion construct was used for one of the components in each sample. […] Ten microliter of each sample was loaded into the sample wells of the silicon cassettes assembled onto MassGlass UC coverslips (Refeyn, Ltd.). […]"}, "p300TAZ2": {"system": "p300TAZ2", "assay": "Mass photometry (MP) of GST-EZH2TAD1 with p300TAZ2", "format": "binding, human", "method": "[37]. Briefly, both ^15N-labeled and unlabeled constructs were expressed in Escherichia coli Rosetta-2 (DE3) pLysS cells grown in either M9 minimal media or TB, both supplemented with 50-150 μM ZnCl2. After induction with isopropyl b-D-1-thiogalactopyranoside (IPTG), harvesting, and lysis in buffer [50 mM Tris pH 7.0, 1 M NaCl, 5 mM dithiothreitol (DTT), 1 mM phenylmethanesulfonylfluoride (PMSF) and DNase] by sonication, the proteins were purified on glutathione agarose beads (Pierce) and eluted with buffer containing reduced L-glutathione (Fisher). The GST tag was either cleaved with TEV protease overnight at 22°C or kept intact during subsequent purification steps. […] Human EZH2[…]3 ([…]) construct with a C-terminal 6×His tag was cloned into a pGEX-6P-1 vector (GenScript). The EZH2TAD1 ([…]) construct was generated by deletion using Q5 Hot Start High-Fidelity kit (NEB) and confirmed by DNA sequencing. Both constructs were expressed in E. coli Rosetta-2 (DE3) pLysS cells grown in LB media and induced at an OD600 of 0.6-0.8 with 1 mM IPTG for 16 h at 16°C. Cells were harvested by centrifugation, suspended in buffer (50 mM Tris pH 7.5, 500 mM NaCl, 1% CHAPS, 2 mM DTT, 1 mM PMSF, Roche cOmplete Protease Inhibitor Cocktail, and DNase), and lysed by sonication. […] When necessary, EZH2TAD constructs were further purified using a Superdex 200 Increase 10/300 GL column (Cytiva) with monitoring at 205 and 280 nm. Mass Photometry […] To overcome the minimum size limit, a GST-fusion construct was used for one of the components in each sample. […] Ten microliter of each sample was loaded into the sample wells of the silicon cassettes assembled onto MassGlass UC coverslips (Refeyn, Ltd.). Measurements were performed at room temperature in buffer (50 mM Tris pH 7.5, 150 mM NaCl, 5 mM DTT). β-amylase was used as calibration standard (56 kDa, 112 kDa, and 224 kDa). After the focus was set and locked, movies were captured for 60 s (2800 frames) using AcquireMP software (Refeyn Ltd). Data were processed using DiscoverMP (Refeyn Ltd)."}},
  "note": "No end group written: not given here.",
  "data": [
    {"substance": "DGTFIEELIKNYD [EZH2TAD1]", "values": [
      {"measurement": "Kd", "setting": "[1]", "value": "530 ± 80", "unit": "nM"}
    ]},
    {"substance": "EZH2 WT: GST-tagged EZH2TAD1-TAD2-TAD3 (aa 119–267)", "values": [
      {"measurement": "H3K18 acetylation by p300 core", "setting": "[2]; H3K18ac Western blot", "value": "dose-dependent increase in H3K18 and H3K27 acetylation"},
      {"measurement": "H3K27 acetylation by p300 core", "setting": "[2]; H3K27ac Western blot", "value": "dose-dependent increase in H3K18 and H3K27 acetylation"}
    ]},
    {"substance": "EZH2TAD1-TAD2-TAD3: recombinant human EZH2 aa 142–231 construct with a C-terminal 6×His tag, used in mass photometry", "values": [
      {"measurement": "MP peak of complex with GST-p300TAZ2", "setting": "GST-p300TAZ2; 20 nM GST-p300TAZ2 + 1 μM EZH2TAD1-TAD2-TAD3, room temperature, 50 mM Tris pH 7.5, 150 mM NaCl, 5 mM DTT", "value": "~ 224 kDa"},
      {"measurement": "stoichiometry of the complex with GST-p300TAZ2", "setting": "GST-p300TAZ2; from MP peak, 20 nM GST-p300TAZ2, EZH2TAD1-TAD2 5 μM or EZH2TAD1-TAD2-TAD3 1 μM", "value": "six molecules of GST-p300TAZ2 and one molecule of EZH2TAD1-TAD2-TAD3"}
    ]},
    {"substance": "GST-EZH2TAD1: recombinant GST-tagged EZH2TAD1 (aa 142–160) construct (DGTFIEELIKNYDGKVHGD-His6; also: GST tag, end not given here)", "values": [
      {"measurement": "shift of the MP peak upon addition of p300TAZ2", "setting": "p300TAZ2; 20 nM GST-EZH2TAD1, 0.1 μM p300TAZ2", "value": "~ 14 kDa"},
      {"measurement": "oligomeric state in the apo-state", "setting": "p300TAZ2; 20 nM GST-EZH2TAD1 alone", "value": "formed a dimer in the apo-state"},
      {"measurement": "MP peak, apo GST-EZH2TAD1", "setting": "p300TAZ2; 20 nM GST-EZH2TAD1 alone, room temperature, 50 mM Tris pH 7.5, 150 mM NaCl, 5 mM DTT", "value": "~ 70 kDa"},
      {"measurement": "oligomeric state / stoichiometry of GST-EZH2TAD1 complexes", "setting": "p300TAZ2; 20 nM GST-EZH2TAD1 with 0.1 μM p300TAZ2", "value": "dimeric GST-EZH2TAD1 bound by one molecule of p300TAZ2 and by two molecules of p300TAZ2"}
    ]},
    {"substance": "NDEIFVELVNALGQYNDDD [EZH2TAD2]", "values": [
      {"measurement": "Kd", "setting": "[1]", "value": 310, "unit": "nM"}
    ]},
    {"substance": "SDKIFEAISSMF [EZH2TAD3]", "values": [
      {"measurement": "Kd", "setting": "[1]", "value": "520 ± 60", "unit": "nM"}
    ]}
  ]
}
